In article PMC11325555, “Interaction of Bisphenol A and Its Analogs with Estrogen and Androgen Receptor from Atlantic Cod (Gadus morhua)” (Environmental Science & Technology, 2024):

Biological target: T1, Atlantic cod estrogen receptor alpha (gmEra) LBD (Gadus morhua, UniProt U5ILH7)
T1 sequence (U5ILH7 170-455): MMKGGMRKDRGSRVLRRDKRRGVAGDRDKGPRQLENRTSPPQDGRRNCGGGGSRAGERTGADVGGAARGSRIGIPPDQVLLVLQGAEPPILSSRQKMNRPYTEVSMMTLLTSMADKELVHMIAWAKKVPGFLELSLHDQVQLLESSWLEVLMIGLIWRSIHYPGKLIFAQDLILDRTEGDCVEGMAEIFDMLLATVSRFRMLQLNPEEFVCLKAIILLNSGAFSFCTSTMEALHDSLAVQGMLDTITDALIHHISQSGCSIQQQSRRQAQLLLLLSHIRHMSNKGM
Experiment: Luciferase reporter gene assay, gmEra antagonism (antiestrogenic activity), coexposure with 3 nM EE2
Format: cell-based
Conditions: coexposure with EE2 (3 nM, EC20)
Procedure: Ligand activation of gmEra and gmAra was studied with a luciferase reporter gene assay in COS-7 cells transiently transfected with the pCMX-GAL4(DBD)-gmEra(LBD) or pCMX-GAL4(DBD)-gmAra(LBD) plasmid by using the TransIT-LT1 reagent (TransIT-LT1 Transfection Reagent, Mirus). Cells were seeded into 96-well plates (5000 cells/well) and incubated for 24 h before cotransfection with the plasmid mixture (100 ng/well). The plasmid mixture contained GAL4-UAS luciferase reporter plasmid (tk-(MH100)x4 luc), the pCMX-GAL4(DBD)-gmEra(LBD) or pCMX-GAL4(DBD)-gmAra(LBD) receptor plasmids (2:1 reporter:receptor plasmid mass ratio), and a plasmid constitutively producing the β-galactosidase enzyme used for normalization of transfection efficiency (pCMV- β-Gal). […] The maximum DMSO/methanol concentrations in the exposure wells were 0.5% (v/v) in DMEM medium without phenol red (Sigma-Aldrich). After exposure, cells were lysed, and luciferase and beta-galactosidase activities were measured as luminescence and absorbance (420 nm) after the addition of luciferin and ONPG substrates, respectively, using an Enspire Multimode plate reader (PerkinElmer, Waltham, Massachusetts, USA).
To investigate potential antiestrogenic effects, COS-7 cells transiently expressing gmEra LBD were exposed to the 12 bisphenols in binary mixtures with a fixed concentration of EE2 (3 nM, corresponding to EC20) (Figure 2 and Table 1).
The dose–response curves were created using nonlinear regression and the four-parameter logistic fit in Graphpad Prism v.9. *p < 0.05 versus solvent control by ANOVA and Dunnett’s multiple comparison post hoc test.

SMILES: CC(C)(c1ccc(OCC2CO2)cc1)c1ccc(OCC2CO2)cc1 (stereo not shown) [BADGE]
- antiestrogenic effect on gmEra, result in words: no antiestrogenic effects
